Experimental data from publication PMC3386246 (PLoS Pathogens, 2012).

Biological target: T1, NtrC D54E (Escherichia coli, UniProt P0AFB8, D54E)
T1 construct: gene glnG
Assay: biochemical
Details: read-out: % inhibition at 250 μM

T1 sequence (P0AFB8 whole entry D54E): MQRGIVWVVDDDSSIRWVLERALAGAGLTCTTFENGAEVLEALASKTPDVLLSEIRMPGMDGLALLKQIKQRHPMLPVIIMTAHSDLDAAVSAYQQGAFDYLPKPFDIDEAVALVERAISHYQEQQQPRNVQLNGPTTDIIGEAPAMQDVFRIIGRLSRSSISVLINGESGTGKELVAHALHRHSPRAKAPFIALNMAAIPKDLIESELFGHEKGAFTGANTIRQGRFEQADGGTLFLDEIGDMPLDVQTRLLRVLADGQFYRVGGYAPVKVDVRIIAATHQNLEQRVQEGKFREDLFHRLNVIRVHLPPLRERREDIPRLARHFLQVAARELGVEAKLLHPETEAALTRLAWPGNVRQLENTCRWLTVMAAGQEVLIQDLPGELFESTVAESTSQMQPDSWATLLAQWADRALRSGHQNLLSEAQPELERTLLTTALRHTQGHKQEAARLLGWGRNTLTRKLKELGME

## CC(C)COC(=O)CSc1n[nH]c(=O)[nH]c1=O [compound 11]
  inhibition at 250 µM: ~10%

## CC(C)(C)COC(=O)CSc1n[nH]c(=O)[nH]c1=O [compound 12]
  inhibition at 250 µM: ~10%
